Among the data in BindingDB's records for patent US8822500 (Chembridge, 2014) are IC50 values, retold here.

This assay addresses ALK tyrosine kinase receptor (Homo sapiens, UniProt Q9UM73). Put plainly: In Vitro Kinase Activity Assay. The following applies: pH 7.5.

ALK tyrosine kinase receptor, sequence (Q9UM73 whole entry): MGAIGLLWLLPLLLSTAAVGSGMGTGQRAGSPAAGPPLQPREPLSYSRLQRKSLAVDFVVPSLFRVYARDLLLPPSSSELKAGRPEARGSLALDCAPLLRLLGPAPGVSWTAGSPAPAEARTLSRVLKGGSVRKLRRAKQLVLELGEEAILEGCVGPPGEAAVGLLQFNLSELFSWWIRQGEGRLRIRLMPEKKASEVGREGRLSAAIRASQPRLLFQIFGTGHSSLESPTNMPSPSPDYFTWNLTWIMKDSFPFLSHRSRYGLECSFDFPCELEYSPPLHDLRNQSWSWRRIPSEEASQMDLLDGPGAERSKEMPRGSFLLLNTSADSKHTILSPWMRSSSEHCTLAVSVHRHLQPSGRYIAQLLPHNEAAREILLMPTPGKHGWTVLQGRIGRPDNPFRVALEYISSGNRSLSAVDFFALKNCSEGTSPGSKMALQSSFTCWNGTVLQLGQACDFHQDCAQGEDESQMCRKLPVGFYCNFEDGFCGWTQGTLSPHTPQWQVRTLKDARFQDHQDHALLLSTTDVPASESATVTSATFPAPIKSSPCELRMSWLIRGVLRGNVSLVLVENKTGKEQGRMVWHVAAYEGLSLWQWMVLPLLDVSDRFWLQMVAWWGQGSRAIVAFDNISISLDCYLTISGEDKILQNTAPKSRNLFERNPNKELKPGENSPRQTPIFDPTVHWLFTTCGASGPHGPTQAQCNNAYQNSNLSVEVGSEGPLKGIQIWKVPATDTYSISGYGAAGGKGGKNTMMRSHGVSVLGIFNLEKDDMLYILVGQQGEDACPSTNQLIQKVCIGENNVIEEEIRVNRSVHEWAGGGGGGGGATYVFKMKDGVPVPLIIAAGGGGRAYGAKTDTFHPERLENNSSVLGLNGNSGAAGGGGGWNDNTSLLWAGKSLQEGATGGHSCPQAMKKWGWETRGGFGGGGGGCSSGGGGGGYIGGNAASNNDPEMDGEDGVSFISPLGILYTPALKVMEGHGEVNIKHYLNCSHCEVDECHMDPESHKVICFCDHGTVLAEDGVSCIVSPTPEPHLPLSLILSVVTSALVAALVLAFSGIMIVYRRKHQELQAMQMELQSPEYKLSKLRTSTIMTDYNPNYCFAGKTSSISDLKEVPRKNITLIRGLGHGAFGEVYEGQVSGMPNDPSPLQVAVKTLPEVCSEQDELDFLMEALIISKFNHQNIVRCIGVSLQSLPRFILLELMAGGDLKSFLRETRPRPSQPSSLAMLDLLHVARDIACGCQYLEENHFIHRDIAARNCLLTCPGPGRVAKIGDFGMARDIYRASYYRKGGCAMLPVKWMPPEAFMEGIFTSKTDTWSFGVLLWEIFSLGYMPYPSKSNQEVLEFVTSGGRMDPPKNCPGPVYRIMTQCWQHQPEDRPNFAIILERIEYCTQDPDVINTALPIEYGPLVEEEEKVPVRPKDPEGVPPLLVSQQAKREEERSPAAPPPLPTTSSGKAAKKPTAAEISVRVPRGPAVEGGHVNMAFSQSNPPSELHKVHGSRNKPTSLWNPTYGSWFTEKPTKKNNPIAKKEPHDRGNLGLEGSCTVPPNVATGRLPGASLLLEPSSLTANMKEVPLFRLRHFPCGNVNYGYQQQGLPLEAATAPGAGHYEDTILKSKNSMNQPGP

As a reminder, the IC50 is the concentration that inhibits the measured activity by half. The low end stands for greater potency, the high end for weaker potency. Consider `CC(Cc1cc(F)ccc1F)Nc1cc[nH]c(=O)c1-c1nc2cc3c(cc2[nH]1)C(=O)N(C1CCN(C)CC1)C3=O` (stereo unspecified) [US8822500, [28]], for which the IC50 is 15.1 nM.
